Data reported in US20100310451A1, “ALTERED N-CADHERIN PROCESSING IN TUMOR CELLS BY FURIN AND PROPROTEIN CONVERTASE 5A (PC5A)” (THE ROYAL INSTITUTION FOR THE ADVANCEMENT OF LEARN, priority 2007, published 2010).
The star is where a group is joined. Decanoyl = CCCCCCCCCC(=O)*; CH2Cl = ClC*

Assays:
[1] = tested on: proprotein convertases (PCs); assay: N-cadherin proteolytic processing assay, transfected U251 and U343 glioma cells; type: cell-based, human; conditions: U251 and U343 cells transfected with N-cadherin; dec-cmk in culture medium
Experimental: (§1) To assess N-cadherin proteolytic processing, we devised an assay where N-terminal cleavage products were detected in the conditioned medium of cells using the proN antibody. Cells were transiently transfected with the appropriate construct(s), the conditioned medium was collected 36 h later, concentrated, and total protein concentration was determined using a Lowry assay (Biorad). Conditioned medium (15 μg protein) was run on a 15% gel, and cleavage products detected were as follows: a 17 kDa band corresponded to cleavage at the consensus site, and a 20 kDa band represented cleavage at the second site.

[2] = tested on: proprotein convertases (PCs); assay: N-cadherin proteolytic processing assay, transfected HeLa cells; type: cell-based; conditions: HeLa cells transfected with N-cadherin +/- FL-PC5A; 50 μM dec-cmk; proN antibody
Experimental: as §1

PC5A [3] = assay: PC5A cell surface localization, FL-PC5A transfected HeLa cells; type: cell-based; conditions: HeLa cells transfected with FL-PC5A; heparin added to culture medium; non-permeabilizing
Experimental: (§2) Live-cell staining was carried out by incubating cells plated on coverslips with primary antibody diluted in medium without serum at 4° C. for 1 h. The cells were washed with PBS and fixed in 4% paraformaldehyde. Following washes with PBS, cells were incubated with fluorescent-conjugated secondary antibody diluted in 1% BSA, 0.02% TritonX, PBS, for 40 min at room temperature. Coverslips were then mounted and examined as above. For surface PC5A staining, cells were washed twice with ice-cold PBS, fixed with freshly prepared 3.7% paraformaldehyde for 10 min on ice, washed 3 times with PBS, incubated in 150 mM glycine for 5 min, washed once with PBS, blocked for 30 min in 1% BSA, incubated in primary antibody overnight at 4° C., washed 4 times with PBS, incubated with secondary antibody for 40 min at room temperature, and washed 4 times with PBS. Coverslips were mounted and examined as above.

PC5A [4] = assay: Endogenous PC5A cell surface localization, glioma cells; type: cell-based, human; conditions: U251 and U343 cells; heparin added to the cells
Experimental: as §2

Substance | N-cadherin cleavage products in conditioned medium [1] | N-cadherin cleavage products in conditioned medium [2] | PC5A detection on the cell surface (PC5A [3]) | PC5A detection at the cell surface (PC5A [4])
Decanoyl-Arg-Val-Lys-Arg-chloromethylketone (Decanoyl-RVKR-CH2Cl) [dec-cmk] | no cleavage products detected | no cleavage products detected | – | –
heparin | – | – | not detected | not detected
